The values below come from patent US20040005649A1, “Anti-stilbene antibodies” (priority 2003, published 2004).

The conditions of data set [1]: 77° K in hydrophobic solvents and 193° K in glycerol; cited from earlier work.
The nature of data set [2]: Steady-state UV absorption, fluorescence excitation and emission spectra, quantum yield. Type of data set: physicochemical. The protocol:
(A) UV absorption. (B) Fluorescence excitation. Note: The 19G2-2 complex and free 2 each required a separate y-axis scale for side-by-side comparison of peak shapes. (C) Fluorescence emission. See note for (B). In all cases, see Table 2 for experimental conditions. Steady-state excitation and emission spectra were recorded using an SLM 8100 spectrofluorimeter (Spectronics Instruments) with a bandpass of 4 nm for excitation and emission.

The nature of data set [3]: Picosecond time-resolved emission, time-correlated single photon counting. It counts as physicochemical. The protocol:
Measurements were obtained with picosecond excitation at 318 nm. Decays were measured at 380 nm (free 2, 16H10 and 25E5 complexes) or 410 nm (19G2 complex) by time-correlated single photon counting. Decays were recorded in 4096 channels with a time increment of 18 ps/channel and were normalized relative to the number of counts recorded in the peak channel. See Table 3 for experimental conditions.
Normalized time-resolved emission profiles of the 20F2-2 complex were recorded at 370 nm (purple) and 480 nm (blue). The solid lines are multiexponential fits to each decay. […] Decays were recorded in 4096 channels with a time increment of 4.9 ps/channel and were normalized relative to the number of counts recorded in the peak channel. See Table 3 for experimental conditions.
Dynamic spectroscopy. Picosecond time-resolved emission spectroscopy was used to further probe the dynamics of blue-fluorescent antibodies. Time-resolved emission decay profiles of free 2 and bound to EP2 mAbs were measured at room temperature by time-correlated single-photon counting (Table 3, FIG. 16).

For the next data set, the system named is mAb 19G2. The experiment in a line: Binding of stilbene-tethered C-nucleosides to blue-fluorescent mAb 19G2 (fluorescence, crystal soak). To be noted: for emission of mAb 19G2 crystal after soaking: crystal soaked with ligand, UV lamp. Further details: species or system mice. The protocol:
Each C-nucleoside was tested for the ability to bind to the blue-fluorescent monoclonal antibody (mAb) 19G2. […] Subsequently, we acquired X-ray crystallographic data on both complexes primarily to obtain information regarding positioning of the nucleobase moiety with regard to the protein framework. The structures of the 19G2-9 and 19G2-18 complexes were determined to a resolution of 2.45 Å and 2.20 Å, respectively (Table 4). In both cases, the antibody structures differ by an RMSD of 0.61 Å and 0.50 Å from that of the previously determined 19G2-12 complex. The stilbene portion of both 9 and 18 is clear in 2σ density and could be readily modeled into the density as the trans-isomer. For both complexes, binding site amino acid residues within 5 Å of the stilbene are observed to be in the same conformation as in 19G2-12.
X-ray crystallography. Crystals of mAb 19G2 were soaked overnight with a 0.25 mM solution of either 9 or 18 (DMF stock solutions) in mother liquor from the crystal growth (12% polyethylene glycol, 0.1 M sodium acetate pH 4.75, 0.3 M magnesium chloride) containing 5% DMF. Formation of the complex in the crystal was assayed by the appearance of blue fluorescence from soaked crystals when illuminated by a hand-held UV lamp at 312 nm (Spectronics Corp.; Westbury, N.Y.). The crystals were soaked in a cryobuffer consisting of 20% glycerol, 0.25 mM 9 or 18, mother liquor, and 5% DMF and flash frozen in liquid nitrogen. X-ray diffraction was collected in-house with an FRD X-ray generator and a RAXISIVF^++ detector. Data was processed and scaled using HKL software package. The previously determined structure of the antibody (PDB ID CODE 1FL3) was used as a starting model for refinement. Multiple rounds of rigid body refinement, B-factor refinement, Powell minimization, simulated annealing in CNS and manual rebuilding in O were performed.

[4] abbreviates: 20 μM mAb, 10 μM of 2 (or free stilbene), PBS pH 7.4, 5% DMF, 20° C.
[5] abbreviates: 20 μM mAb, 10 μM of 2 (or free stilbene), PBS, 5% DMF, 20° C.

As to `C(=C\c1ccccc1)/c1ccccc1` [compound 1, trans-stilbene], the φf in data set [1] is 0.75.
In data set [2] (setting [4]), `O=C(O)CCCC(=O)Nc1ccc(/C=C/c2ccccc2)cc1` [compound 2, 5-oxo-5-[[4-[(1E)-2-phenylethenyl]phenyl]amino]-pentanoic acid] displayed a λem of 388 nm and a λex of 325 nm. Further, the εmax in data set [2] (setting [5]) came to 33200 M⁻¹ cm⁻¹. In addition, the “φf lower than blue-fluorescent antibody complexes” value in data set [2] (free 2 in fluid solution) was 30-40 fold. Further, in data set [2] (reference quinine bisulfate, 20 μM mAb, 10 μM of 2, PBS, 5% DMF, 20° C, accurate to ±10%), the “φf (fluorescence quantum yield)” value is 0.02. The UV absorption bands in data set [2] (values in parentheses are shoulders/inflections, 20 μM mAb, 10 μM of 2, PBS, 5% DMF, 20° C) turned out to be 320 nm. In addition, the “fluorescence decay components, τf” value in data set [3] (20 μM mAb, 10 μM of 2 (or free 2), PBS, 5% DMF, 20° C) was 0.071 ns. In addition, in data set [3] (calculated as the inverse of τr), the “kr (radiative rate constant)” value is recorded as 0.28 ns^−1. Besides, the “τr (radiative lifetime)” value in data set [3] (calculated from τf and φf) was 3.6 ns. Besides, the “knr (nonradiative rate constant)” value in data set [3] (calculated knr = [kr(1-φf)/φf]) is on record as 14 ns^−1. This compound also showed a fluorescence lifetime in data set [3] (free in aqueous buffer, room temperature) of approximately 70 ps. In the data set on mAb 19G2, the “quantum yield (φf) of complex with mAb 19G2” value (shortened to “quantum yield (φf) of complex”) is on record as approximately 0.80.
As for `O=C(CCCC(=O)Nc1ccc(/C=C/c2ccccc2)cc1)NCCc1ccc(C2C[C@H](O)[C@@H](CO)O2)cc1` (stereo partly drawn) [compound 9, N-[2-[4-[2-deoxy-D-erythro-pentofuranosyl]phenyl]ethyl]-N′-[4-[(1E)-2-phenylethenyl]phenyl]-pentanediamide, reference compound], the λem in data set [2] (setting [4]) was 442 nm. The compound further displayed a εmax in data set [2] (setting [5]) of 30000 M⁻¹ cm⁻¹. For the same compound, in the data set with mAb 19G2, the “quantum yield (φf) of complex” value was “comparable” and the “emission of mAb 19G2 crystal after soaking” value is recorded as “blue emission”.
`OCC1OC(c2ccc(COCCOCCOCc3ccc(C=Cc4ccccc4)cc3)cc2)CC1O` [compound 18, 1,4-anhydro-2-deoxy-1-C-[4-[[2-[2-[[4-[(1E)-2-phenylethenyl]phenyl]methoxy]ethoxy]ethoxy]methyl]]phenyl]-D-erythro-pentitol]: in the data set with mAb 19G2, the “quantum yield (φf) of complex” value is on record as “comparable” and the “emission of mAb 19G2 crystal after soaking” value was “blue emission”.
